Columns and labels:
[1] = tested on: galium; test: Test C postemergence; format: in vivo, Galium aparine; conditions: for Plant response rating (scale of 0 to 100 where 0 is no effect and 100 is complete control), Galium: Postemergence, 31 g ai/ha, visually evaluated after 13 to 15 days; for Galium plant response rating / Plant response rating, Galium: postemergence; for Galium plant response rating: 62 g ai/ha, scale 0 to 100
Outline: (§1)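 Herbicidal effect is expressed as percent visual control (0–100) judged against untreated plants 13 to 15 days after treatment in the greenhouse. Preemergence pots contained seeds in a soil–sand blend; postemergence plants, 2–18 cm tall, grew in peat-based planting medium.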

[2] = tested on: crabgrass, large; test: Test A preemergence; format: in vivo, Digitaria sanguinalis; conditions: preemergence
Outline: (§2)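 After sowing in a sand–loam mix, pots received compound preemergence by directed soil spray, or postemergence once plants reached the one- to two-leaf stage (2–10 cm). Formulation contained surfactant in a non-phytotoxic solvent. Injury was scored visually after ~10 greenhouse days, 0–100 scale.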

[3] = tested on: velvetleaf; test: Test A preemergence; format: in vivo, Abutilon theophrasti; conditions: preemergence
Outline: as §2

[4] = tested on: oilseed rape; test: Test C preemergence; format: in vivo, Brassica napus; conditions: for Plant response rating (scale of 0 to 100), Oilseed Rape: Preemergence; for Oilseed Rape plant response rating / Plant response rating, Oilseed Rape: preemergence; for Plant response rating, Oilseed Rape: scale 0 to 100, 0 = no effect, 100 = complete control
Outline: as §1

[5] = tested on: crabgrass, large; test: Test C postemergence; format: in vivo, Digitaria sanguinalis; conditions: for Plant response rating (scale of 0 to 100 where 0 is no effect and 100 is complete control), Crabgrass, Large: Postemergence, 31 g ai/ha, visually evaluated after 13 to 15 days; for Crabgrass, Large plant response rating / Plant response rating, Crabgrass, Large: postemergence; for Crabgrass, Large plant response rating: 62 g ai/ha, scale 0 to 100
Outline: as §1

[6] = tested on: morningglory; test: Test A preemergence; format: in vivo, Ipomoea spp.; conditions: preemergence
Outline: as §2

[7] = tested on: foxtail, giant; test: Test A postemergence; format: in vivo, Setaria faberii
Outline: as §2

[8] = tested on: barnyardgrass; test: Test B flood; format: in vivo, Echinochloa crus-galli; conditions: 250 g ai/ha, visual rating on 0 to 100 scale (0 no effect, 100 complete control), 13 to 15 days
Outline: (§3)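 Paddy-water application: seedlings at 2-leaf stage, flood depth 3 cm maintained for the test duration. Evaluation after 13–15 days in the greenhouse by eye relative to controls; 0–100 scale.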

[9] = tested on: corn; test: Test C preemergence; format: in vivo, Zea mays; conditions: for Plant response rating (scale of 0 to 100), Corn: Preemergence; for Corn plant response rating / Plant response rating, Corn: preemergence; for Plant response rating, Corn: scale 0 to 100, 0 = no effect, 100 = complete control
Outline: as §1

[10] = tested on: oilseed rape; test: Test C postemergence; format: in vivo, Brassica napus; conditions: for Plant response rating (scale of 0 to 100 where 0 is no effect and 100 is complete control), Oilseed Rape: Postemergence, 31 g ai/ha, visually evaluated after 13 to 15 days; for Oilseed Rape plant response rating / Plant response rating, Oilseed Rape: postemergence; for Oilseed Rape plant response rating: 62 g ai/ha, scale 0 to 100
Outline: as §1

[11] = tested on: barnyardgrass; test: Test A postemergence; format: in vivo, Echinochloa crus-galli
Outline: as §2

[12] = tested on: rice; test: Test B flood; format: in vivo, Oryza sativa; conditions: 250 g ai/ha, visual rating on 0 to 100 scale (0 no effect, 100 complete control), 13 to 15 days
Outline: as §3

[13] = tested on: kochia; test: Test C postemergence; format: in vivo, Kochia scoparia; conditions: for Plant response rating (scale of 0 to 100 where 0 is no effect and 100 is complete control), Kochia: Postemergence, 31 g ai/ha, visually evaluated after 13 to 15 days; for Kochia plant response rating / Plant response rating, Kochia: postemergence; for Kochia plant response rating: 62 g ai/ha, scale 0 to 100
Outline: as §1

[14] = tested on: corn; test: Test A preemergence; format: in vivo, Zea mays; conditions: preemergence
Outline: as §2

[15] = 250 g ai/ha, scale 0 to 100 (0 no effect, 100 complete control)
[16] = 125 g ai/ha, scale 0 to 100, 0 no effect, 100 complete control
[17] = 125 g ai/ha, visual injury, 0 to 100 scale, approx. 10 days
[18] = 500 g ai/ha, visual injury after approx. 10 days, 0 to 100 scale (0 no effect, 100 complete control)
[19] = 31 g ai/ha, visual rating, scale 0 to 100 (0 no effect, 100 complete control), 13 to 15 days
[20] = 62 g ai/ha, scale 0 to 100 (0 no effect, 100 complete control), 13 to 15 days
[21] = 125 g ai/ha, scale 0 to 100, 0 is no effect, 100 is complete control
[22] = Postemergence, 500 g ai/ha, visual rating after approx. 10 days, 0 to 100 scale (0 no effect, 100 complete control)
[23] = postemergence, 125 g ai/ha, about 10 days, visual rating on 0 to 100 scale (0 no effect, 100 complete control)
[24] = Postemergence, 500 g ai/ha, 0 to 100 scale (0 no effect, 100 complete control)
[25] = 125 g ai/ha, visual injury approx. 10 days after treatment
[26] = 250 g ai/ha, scale 0 to 100, 0 is no effect, 100 is complete control

CCc1cc(C(=O)NCC(F)(F)F)nn1Cc1cc(C(F)(F)F)nn1C [Compound 108, 5-ethyl-1-[[1-methyl-3-(trifluoromethyl)-1H-pyrazole-5-yl]methyl]-N-(2,2,2-trifluoroethyl)-1H-pyrazole-3-carboxamide]
Plant response rating (scale of 0 to 100 where 0 is no effect and 100 is complete control), Galium [1]: 60
Galium plant response rating [1]: 60
Plant response rating, Galium [1, 15]: 90
Plant response rating, Galium [1, 16]: 80
Crabgrass, Large plant response rating [2, 17]: 100
Crabgrass, Large plant response rating [2, 18]: 100
Velvetleaf plant response rating [3, 17]: 60
Velvetleaf plant response rating [3, 18]: 100
Plant response rating (scale of 0 to 100), Oilseed Rape ([4]; 250 g ai/ha): 100
Oilseed Rape plant response rating [4, 19]: 90
Oilseed Rape plant response rating [4, 20]: 98
Oilseed Rape plant response rating [4, 21]: 100
Plant response rating (scale of 0 to 100 where 0 is no effect and 100 is complete control), Crabgrass, Large [5]: 5
Crabgrass, Large plant response rating [5]: 10
Plant response rating, Crabgrass, Large [5, 15]: 50
Plant response rating, Crabgrass, Large [5, 16]: 10
Morningglory plant response rating [6, 17]: 100
Morningglory plant response rating [6, 18]: 100
Foxtail, Giant plant response rating [7, 22]: 100
Foxtail, Giant plant response rating [7, 23]: 90
Plant response rating, Barnyardgrass [8]: 40
Plant response rating (scale of 0 to 100), Corn ([9]; 250 g ai/ha): 95
Corn plant response rating [9, 19]: 5
Corn plant response rating [9, 20]: 30
Corn plant response rating [9, 21]: 95
Plant response rating (scale of 0 to 100 where 0 is no effect and 100 is complete control), Oilseed Rape [10]: 50
Oilseed Rape plant response rating [10]: 50
Plant response rating, Oilseed Rape [10, 15]: 55
Plant response rating, Oilseed Rape [10, 16]: 55
Barnyardgrass plant response rating [11, 22]: 90
Barnyardgrass plant response rating [11, 23]: 90
Plant response rating, Rice [12]: 15
Plant response rating (scale of 0 to 100 where 0 is no effect and 100 is complete control), Kochia [13]: 40
Kochia plant response rating [13]: 60
Plant response rating, Kochia [13, 15]: 90
Plant response rating, Kochia [13, 16]: 80
Corn plant response rating [14, 17]: 30
Corn plant response rating [14, 18]: 90

CCCNC(=O)c1cc(CC)n(Cc2nc(C(F)(F)F)nn2C)n1 [Compound 109]
Plant response rating (scale of 0 to 100 where 0 is no effect and 100 is complete control), Galium [1]: 50
Galium plant response rating [1]: 50
Plant response rating, Galium [1, 15]: 80
Plant response rating, Galium [1, 16]: 65
Crabgrass, Large plant response rating [2, 17]: 100
Crabgrass, Large plant response rating [2, 18]: 100
Velvetleaf plant response rating [3, 17]: 70
Velvetleaf plant response rating [3, 18]: 100
Plant response rating (scale of 0 to 100), Oilseed Rape ([4]; 250 g ai/ha): 100
Oilseed Rape plant response rating [4, 19]: 40
Oilseed Rape plant response rating [4, 20]: 100
Oilseed Rape plant response rating [4, 21]: 100
Plant response rating (scale of 0 to 100 where 0 is no effect and 100 is complete control), Crabgrass, Large [5]: 5
Crabgrass, Large plant response rating [5]: 10
Plant response rating, Crabgrass, Large [5, 15]: 45
Plant response rating, Crabgrass, Large [5, 16]: 10
Morningglory plant response rating [6, 17]: 100
Morningglory plant response rating [6, 18]: 100
Foxtail, Giant plant response rating [7, 22]: 90
Foxtail, Giant plant response rating [7, 23]: 90
Plant response rating, Barnyardgrass [8]: 0
Plant response rating (scale of 0 to 100), Corn ([9]; 250 g ai/ha): 100
Corn plant response rating [9, 19]: 25
Corn plant response rating [9, 20]: 85
Corn plant response rating [9, 21]: 95
Plant response rating (scale of 0 to 100 where 0 is no effect and 100 is complete control), Oilseed Rape [10]: 40
Oilseed Rape plant response rating [10]: 45
Plant response rating, Oilseed Rape [10, 15]: 50
Plant response rating, Oilseed Rape [10, 16]: 45
Barnyardgrass plant response rating [11, 22]: 90
Barnyardgrass plant response rating [11, 23]: 90
Plant response rating, Rice [12]: 0
Plant response rating (scale of 0 to 100 where 0 is no effect and 100 is complete control), Kochia [13]: 50
Kochia plant response rating [13]: 75
Plant response rating, Kochia [13, 15]: 90
Plant response rating, Kochia [13, 16]: 90
Corn plant response rating [14, 17]: 60
Corn plant response rating [14, 18]: 80

CCONC(=O)c1cc(CC)n(Cc2ccnc(OC(F)F)c2)n1 [Compound 131]
Plant response rating (scale of 0 to 100 where 0 is no effect and 100 is complete control), Galium [1]: 45
Galium plant response rating [1]: 55
Plant response rating, Galium [1, 15]: 70
Plant response rating, Galium [1, 16]: 50
Crabgrass, Large plant response rating [2, 17]: 100
Crabgrass, Large plant response rating [2, 18]: 100
Velvetleaf plant response rating [3, 17]: 90
Velvetleaf plant response rating [3, 18]: 100
Plant response rating (scale of 0 to 100), Oilseed Rape ([4]; 250 g ai/ha): 100
Oilseed Rape plant response rating [4, 19]: 95
Oilseed Rape plant response rating [4, 20]: 100
Plant response rating, Oilseed Rape ([4]; 125 g ai/ha, 13 to 15 days): 98
Plant response rating (scale of 0 to 100 where 0 is no effect and 100 is complete control), Crabgrass, Large [5]: 5
Crabgrass, Large plant response rating [5]: 5
Plant response rating, Crabgrass, Large [5, 15]: 40
Plant response rating, Crabgrass, Large [5, 16]: 15
Morningglory plant response rating [6, 17]: 100
Morningglory plant response rating [6, 18]: 100
Foxtail, Giant plant response rating [7, 24]: 90
Foxtail, Giant plant response rating [7, 23]: 80
Plant response rating, Barnyardgrass [8]: 50
Plant response rating (scale of 0 to 100), Corn ([9]; 250 g ai/ha): 98
Corn plant response rating [9, 19]: 40
Corn plant response rating [9, 20]: 90
Plant response rating, Corn ([9]; 125 g ai/ha, 13 to 15 days): 95
Plant response rating (scale of 0 to 100 where 0 is no effect and 100 is complete control), Oilseed Rape [10]: 30
Oilseed Rape plant response rating [10]: 35
Plant response rating, Oilseed Rape [10, 15]: 60
Plant response rating, Oilseed Rape [10, 16]: 40
Barnyardgrass plant response rating [11, 24]: 90
Barnyardgrass plant response rating [11, 23]: 80
Plant response rating, Rice [12]: 40
Plant response rating (scale of 0 to 100 where 0 is no effect and 100 is complete control), Kochia [13]: 40
Kochia plant response rating [13]: 70
Plant response rating, Kochia [13, 15]: 75
Plant response rating, Kochia [13, 16]: 70
Corn plant response rating [14, 17]: 60
Corn plant response rating [14, 18]: 90

O=C(NC1CC1)c1cc(CCCl)n(Cc2ccnc(C(F)(F)F)c2)n1 [Compound 144]
Plant response rating (scale of 0 to 100 where 0 is no effect and 100 is complete control), Galium [1]: 40
Galium plant response rating [1]: 55
Plant response rating, Galium [1, 15]: 85
Plant response rating, Galium [1, 16]: 70
Crabgrass, Large plant response rating (0 to 100 scale) [2, 25]: 100
Crabgrass, Large plant response rating [2, 18]: 100
Velvetleaf plant response rating (0 to 100 scale) [3, 25]: 50
Velvetleaf plant response rating [3, 18]: 100
Oilseed Rape plant response rating [4, 19]: 80
Oilseed Rape plant response rating [4, 20]: 95
Plant response rating, Oilseed Rape ([4]; 125 g ai/ha, 13 to 15 days): 100
Oilseed Rape plant response rating [4, 26]: 100
Plant response rating (scale of 0 to 100 where 0 is no effect and 100 is complete control), Crabgrass, Large [5]: 10
Crabgrass, Large plant response rating [5]: 10
Plant response rating, Crabgrass, Large [5, 15]: 55
Plant response rating, Crabgrass, Large [5, 16]: 10
Morningglory plant response rating (0 to 100 scale) [6, 25]: 80
Morningglory plant response rating [6, 18]: 100
Foxtail, Giant plant response rating [7, 24]: 90
Foxtail, Giant plant response rating [7, 23]: 90
Plant response rating, Barnyardgrass [8]: 30
Corn plant response rating [9, 19]: 5
Corn plant response rating [9, 20]: 20
Plant response rating, Corn ([9]; 125 g ai/ha, 13 to 15 days): 60
Corn plant response rating [9, 26]: 85
Plant response rating (scale of 0 to 100 where 0 is no effect and 100 is complete control), Oilseed Rape [10]: 50
Oilseed Rape plant response rating [10]: 50
Plant response rating, Oilseed Rape [10, 15]: 65
Plant response rating, Oilseed Rape [10, 16]: 60
Barnyardgrass plant response rating [11, 24]: 90
Barnyardgrass plant response rating [11, 23]: 70
Plant response rating, Rice [12]: 0
Plant response rating (scale of 0 to 100 where 0 is no effect and 100 is complete control), Kochia [13]: 75
Kochia plant response rating [13]: 85
Plant response rating, Kochia [13, 15]: 95
Plant response rating, Kochia [13, 16]: 95
Corn plant response rating (0 to 100 scale) [14, 25]: 10
Corn plant response rating [14, 18]: 80
